Columns and labels:
[1] = tested on: mouse leukemia adriamycin sensitive strain P388/S; assay: Cancer cell sensitivity test (MTT); format: cell-based; conditions: P388/S cells, test compound 25 μM, 44 hours, MTT-formazan at 540 nm; for inhibition at 25 µM: Mus musculus, read-out: INHIBITORY RATE (%)
Method: Cells of mouse leukemia adriamycin sensitive strain P388/S were cultured in an RPMI1640 culture medium (5% fetal bovine serum, […] 2-mercaptoethanol, 30 μM kanamycin) under conditions of 37° C. and 5% CO2, and used for a compound sensitivity test.
The cell suspension (1.35×10^4 cells/ml) was added to a 96 well plate, 100 μl per well.
After culturing under the conditions of 37° C. and 5% CO2 for 16 hours, a solution of the test compound dissolved in DMSO to a concentration of 25 μM was added, followed by continuation of culture for a further 44 hours, while only DMSO was added to a control to continue the culture.
After culturing, […] (PBS, pH 7.4), was added in an amount of 25 μl/well, followed by incubation for four hours to produce MTT-formazan.
After removing supernatant by aspiration, 200 μl of DMSO was added and the absorbance of MTT-formazan at 540 nm was measured.

Aldose reductase II = Aldose reductase II (Homo sapiens, UniProt P15121); assay: Aldose reductase inhibitory activity (NADPH decrease at 340 nm, DL-glyceraldehyde substrate); format: biochemical; conditions: pH 6.2, 100 mM DL-glyceraldehyde, 1.5 mM NADPH
Method: A reaction solution containing a 200 mM of a phosphate buffer solution (pH 6.2), 1.5 mM of reduced nicotinamide adenine dinucleotide phosphate (NADPH), 1 mg/ml of bovine serum albumin, a test compound, and 100 mM of DL-glyceraldehyde as a substrate was prepared. Aldose reductase II (5.1×10^−1 unit/ml) was added to the solution to initiate the reaction, and the amount of NADPH reduced by the reaction was measured at an absorption wavelength of 340 nm using a spectrophotometer.

mice = assay: Acute toxicity test; format: in vivo; conditions: 500 mg/kg body weight, three mice
Method: Compound 28 was orally administered to three mice at a dose of 500 mg/kg body weight, the maximum amount considered to be prescribed for the mouse in one dose.

IC50 (Aldose reductase II) | SMILES | inhibition at 25 µM [1] | Survival after single oral dose (mice) | Abnormalities in internal organs, action, etc. (mice; oral) | INHIBITORY RATE (%) [1]
55.3 µM | O=C(O)Cn1c2c(c3ccccc31)CCN(C(=O)c1cc(F)c(F)c(F)c1)C2=O [Compound 52, [2-(3,4,5-Trifluorobenzoyl)-1-oxo-1,2,3,4-tetrahydro-β-carbolin-9-yl]acetic acid] | 34.7% | – | – | –
– | CCOC(=O)Cn1c2c(c3cc(F)ccc31)CCN(Cc1ccccc1)C2=O [Compound 22a, (2-Benzyl-6-fluoro-1-oxo-1,2,3,4-tetrahydro-β-carbolin-9-yl)acetic acid ethyl ester] | 34.5% | – | – | –
4.2 µM | O=C(O)Cn1c2c(c3ccccc31)CCN(Cc1ccccc1)C2=S [Compound 26, (2-Benzyl-1-thioxo-1,2,3,4-tetrahydro-β-carbolin-9-yl)acetic acid] | 88.1% | – | – | –
12.4 µM | O=C(O)Cn1c2c(c3cc(Cl)ccc31)CCOC2=O [Compound 30, (6-Chloro-1-oxo-3,4-dihydro-1H-pyrano[3,4-b]indol-9-yl)acetic acid] | 31.1% | – | – | –
5.6 µM | CC(C)(C)OC(=O)Cn1c2c(c3cc(F)ccc31)CCN(Cc1ccccc1)C2=S [Compound 23, (2-benzyl-6-fluoro-1-thioxo-1,2,3,4-tetrahydro-β-carbolin-9-yl)acetic acid tert-butyl ester] | – | – | – | 92.9%
5.6 µM | O=C(O)Cn1c2c(c3cc(C4CCCCC4)ccc31)CCSC2=O [Compound 62, (6-Cyclohexyl-1-oxo-3,4-dihydro-1H-2-thia-9-azafluoren-9-yl)acetic acid] | – | – | – | –

SMILES | IC50 (Aldose reductase II) | inhibition at 25 µM [1] | Survival after single oral dose (mice) | Abnormalities in internal organs, action, etc. (mice; oral) | INHIBITORY RATE (%) [1]
O=C(O)Cn1c2c(c3c(F)cc(F)cc31)CCN(Cc1ccccc1)C2=S [Compound 28, (2-Benzyl-5,7-difluoro-1-thioxo-1,2,3,4-tetrahydro-β-carbolin-9-yl)acetic acid] | 2.5 µM | – | all of the three mice survived | no abnormalities being observed | –
